Key:
Type in all cases: in vivo
[1] = tested on: Plutella xylostella (Diamond Back Moth); assay: Example B6: Plutella xylostella, treated artificial diet, L2 larvae; settings: 120 h, application rate of 200 ppm, 5 days after infestation, read-out: effect in at least one of the two categories (mortality or growth inhibition)
Experimental: Example B6: Plutella xylostella (Diamond Back Moth)
24-well microtiter plates with artificial diet were treated with aqueous test solutions prepared from 10′000 ppm DMSO stock solutions by pipetting. After drying, the plates were infested with L2 larvae (10 to 15 per well). The samples were assessed for mortality and growth inhibition in comparison to untreated samples 5 days after infestation.

[2] = tested on: Bemisia tabaci (Cotton White fly); assay: Example B1: Bemisia tabaci, sprayed cotton leaf discs, adult mortality; settings: foliar, 144 h, application rate of 200 ppm, adult white flies, 6 days after incubation
Experimental: Example B1: Bemisia tabaci (Cotton White fly)
Cotton leaf discs were placed on agar in 24-well microtiter plates and sprayed with aqueous test solutions prepared from 10′000 ppm DMSO stock solutions. After drying the leaf discs were infested with adult white flies. The samples were checked for mortality 6 days after incubation.

[3] = tested on: Spodoptera littoralis (Egyptian Cotton Leaf Worm); assay: Example B7: Spodoptera littoralis, sprayed cotton leaf discs, L1 larvae; settings: foliar, 72 h, application rate of 200 ppm, 3 days after infestation, read-out: control (at least one of mortality, anti-feedant effect, and growth inhibition)
Experimental: Example B7: Spodoptera littoralis (Egyptian Cotton Leaf Worm)
Cotton leaf discs were placed on agar in 24-well microtiter plates and sprayed with aqueous test solutions prepared from 10′000 ppm DMSO stock solutions. After drying the leaf discs were infested with five L1 larvae. The samples were assessed for mortality, anti-feedant effect, and growth inhibition in comparison to untreated samples 3 days after infestation. Control of Spodoptera littoralis by a test sample is when at least one of mortality, anti-feedant effect, and growth inhibition is higher than the untreated sample.

[4] = tested on: Diabrotica balteata (Corn Root Worm); assay: Example B2: Diabrotica balteata, sprayed maize sprouts, L2 larvae; settings: 96 h, application rate of 200 ppm, 4 days after infestation
Experimental: Example B2: Diabrotica balteata (Corn Root Worm)
Maize sprouts, placed on an agar layer in 24-well microtiter plates were treated with aqueous test solutions prepared from 10′000 ppm DMSO stock solutions by spraying. After drying, the plates were infested with L2 larvae (6 to 10 per well). The samples were assessed for mortality and growth inhibition in comparison to untreated samples 4 days after infestation.

[5] = tested on: Thrips tabaci (Onion Thrips); assay: Example B10: Thrips tabaci, sprayed sunflower leaf discs, mixed ages; settings: foliar, 144 h, application rate of 200 ppm, thrips population of mixed ages, 6 days after infestation
Experimental: Example B10: Thrips tabaci (Onion Thrips)
Sunflower leaf discs were placed on agar in 24-well microtiter plates and sprayed with aqueous test solutions prepared from 10′000 ppm DMSO stock solutions. After drying the leaf discs were infested with a thrips population of mixed ages. The samples were assessed for mortality 6 days after infestation.

[6] = tested on: Myzus persicae (Green Peach Aphid); assay: Example B5: Myzus persicae, sprayed sunflower leaf discs, mixed ages; settings: foliar, 144 h, application rate of 200 ppm, aphid population of mixed ages, 6 days after infestation
Experimental: Example B5: Myzus persicae (Green Peach Aphid)
Sunflower leaf discs were placed on agar in a 24-well microtiter plate and sprayed with aqueous test solutions prepared from 10′000 ppm DMSO stock solutions. After drying, the leaf discs were infested with an aphid population of mixed ages. The samples were assessed for mortality 6 days after infestation.

[7] = tested on: Frankliniella occidentalis (Western Flower Thrips); assay: Example B4: Frankliniella occidentalis, sprayed sunflower leaf discs, mixed ages; settings: foliar, 168 h, application rate of 200 ppm, population of mixed ages, 7 days after infestation
Experimental: Example B4: Frankliniella occidentalis (Western Flower Thrips)
Sunflower leaf discs were placed on agar in 24-well microtiter plates and sprayed with aqueous test solutions prepared from […] stock solutions. After drying the leaf discs were infested with a Frankliniella population of mixed ages. The samples were assessed for mortality 7 days after infestation.

[8] = tested on: Spodoptera littoralis (Egyptian Cotton Leaf Worm); assay: Example B8: Spodoptera littoralis, systemic test, compound in agar taken up by lettuce roots; settings: 144 h, test rate of 12.5 ppm, systemic via lettuce roots, 6 days after infestation, read-out: effect in at least one of the three categories (mortality, anti-feedancy, or growth inhibition)
Text: Example B8: Spodoptera littoralis (Egyptian Cotton Leaf Worm)
Test compounds were applied by pipette from 10′000 ppm DMSO stock solutions into 24-well plates and mixed with agar. Lettuce seeds were placed on the agar and the multi well plate was closed by another plate which contains also agar. After 7 days the roots have absorbed the compound and the lettuce has grown into the lid plate. The lettuce leafs were now cut off into the lid plate. Spodoptera eggs were pipetted through a plastic stencil on a humid gel blotting paper and the plate closed with it. The samples were assessed for mortality, anti-feedant effect and growth inhibition in comparison to untreated samples 6 days after infestation.

[9] = tested on: Euschistus heros (Neotropical Brown Stink Bug); assay: Example B3: Euschistus heros, sprayed soybean leaf, N-2 nymphs; settings: 120 h, application rate of 200 ppm, 5 days after infestation, read-out: effect in at least one of the two categories (mortality or growth inhibition)
Experimental: Example B3: Euschistus heros (Neotropical Brown Stink Bug)
Soybean leaf on agar in 24-well microtiter plates were sprayed with aqueous test solutions prepared from 10′000 ppm DMSO stock solutions. After drying the leaf were infested with N-2 nymphs. The samples were assessed for growth inhibition in comparison to untreated samples 5 days after infestation.

[10] = tested on: Tetranychus urticae (Two-Spotted Spider Mite); assay: Example B9: Tetranychus urticae, sprayed bean leaf discs, mixed population; settings: foliar, 192 h
Experimental: Example B9: Tetranychus urticae (Two-Spotted Spider Mite)
Bean leaf discs on agar in 24-well microtiter plates were sprayed with aqueous test solutions prepared from 10′000 ppm DMSO stock solutions. After drying the leaf discs were infested with a mite population of mixed ages. The samples were assessed for mortality on mixed population (mobile stages) 8 days after infestation.

CCS(=O)(=O)c1cc(-c2cc(F)cc(F)c2)cnc1-c1nc2cc(C(F)(F)F)nnc2n1C [P1, 6-[5-(3,5-difluorophenyl)-3-ethylsulfonyl-2-pyridyl]-7-methyl-3-(trifluoromethyl)imidazo[4,5-c]pyridazine]
≥ 80%: percent effect (mortality or growth inhibition) at 200 ppm [1] | mortality at 200 ppm [2] | mortality at 200 ppm [3] | mortality at 200 ppm [4] | mortality at 200 ppm [5] | mortality at 200 ppm [6] | mortality at 200 ppm [7] | percent control (mortality, anti-feedancy or growth inhibition) at 12.5 ppm [8] | percent effect (mortality or growth inhibition) at 200 ppm [9]

CCS(=O)(=O)c1cc(-n2ccc(C(F)(F)F)n2)cnc1-c1nc2cc(C(F)(F)F)nnc2n1C [P2, 6-[3-ethylsulfonyl-5-[3-(trifluoromethyl)pyrazol-1-yl]-2-pyridyl]-7-methyl-3-(trifluoromethyl)imidazo[4,5-c]pyridazine]
≥ 80%: percent effect (mortality or growth inhibition) at 200 ppm [1] | mortality at 200 ppm [2] | mortality at 200 ppm [3] | mortality at 200 ppm [4] | mortality at 200 ppm [5] | mortality at 200 ppm [6] | percent effect (mortality or growth inhibition) at 200 ppm [9]

CCS(=O)(=O)c1cc(-c2ccc(C(F)(F)F)cc2)cnc1-c1nc2cc(C(F)(F)F)nnc2n1C [P3]
≥ 80%: percent effect (mortality or growth inhibition) at 200 ppm [1] | mortality at 200 ppm [3] | mortality at 200 ppm [4] | mortality at 200 ppm [6] | mortality at 200 ppm [7] | percent effect (mortality or growth inhibition) at 200 ppm [9]

CCSc1cc(-c2ccc(C(F)(F)F)cc2)ccc1-c1nc2cc(C(F)(F)F)nnc2n1C [P4, 6-[2-ethylsulfanyl-4-[4-(trifluoromethyl)phenyl]phenyl]-7-methyl-3-(trifluoromethyl)imidazo[4,5-c]pyridazine]
≥ 80%: percent effect (mortality or growth inhibition) at 200 ppm [1] | mortality at 200 ppm [3] | mortality at 200 ppm [4]

CCS(=O)(=O)c1cc(-c2ccc(C(F)(F)F)cc2)ccc1-c1nc2cc(C(F)(F)F)nnc2n1C [P5]
≥ 80%: percent effect (mortality or growth inhibition) at 200 ppm [1] | mortality at 200 ppm [10] | mortality at 200 ppm [3] | mortality at 200 ppm [4]

— patent US10544148B2, “Pesticidally active tetracyclic heterocyclic derivatives with sulphur containing substituents” (Syngenta Participations AG, priority 2014, dated 2020)
